{"source": "patent US20140005145A1", "about": "“COMBINATION BREAST CANCER THERAPY WITH HSP90 INHIBITORY COMPOUNDS” (SYNTA PHARMACEUTICALS CORP., priority 2010, published 2014)", "key": {"[1]": {"system": "MCF-7 human breast cancer tumor cells", "assay": "MCF-7 human breast tumor xenograft in nude mice, Compound 1 with or without tamoxifen", "format": "in vivo", "description": "Tumor-bearing animals (5 mice/group) were i.v. injected 1 time per week for a total of 3 doses with 10 mL/kg of 10/18 DRD vehicle with or without 180 mg/kg Compound 1. Animals were also implanted with slow release tamoxifen pellets (Tam). In the combination treatment group, animals were dosed with Compound 1 four days after tamoxifen pellets were implanted. Each group that was not dosed with Compound 1 was instead dosed with 10/18 DRD vehicle as a mock treatment. Average tumor volumes for each group were determined every 3-5 days.\nThe human breast cancer cell line, MCF-7, was obtained from the American Type Culture Collection (Manassas, Va., USA) and grown according to the ATCC guidelines. MCF-7 xenografts were established in twenty nude mice (Charles River Laboratories, Wilmington, Mass., USA) supplemented with slow release estrogen pellets as previously described, using 5×10^6 cells (1), and randomized into treatment groups. Ten days after cells were inoculated half of the animals were supplemented with slow release tamoxifen pellets.\nTo formulate Compound 1 in 10/18 DRD, stock solutions of the test article were prepared by dissolving the appropriate amounts of the compound in dimethyl sulfoxide (DMSO) by sonication in an ultrasonic water bath. Stock solutions were prepared weekly, stored at −20° C. and diluted fresh each day for dosing. A solution of 20% Cremophor RH40 (polyoxyl 40 hydrogenated castor oil; BASF Corp., Aktiengesellschaft, Ludwigshafen, Germany) in 5% dextrose in water (D5W; Abbott Laboratories, North Chicago, Ill., USA) was also prepared by first heating 100% Cremophor RH40 at 50-60° C. until liquefied and clear, diluting 1:5 with 100% D5W, reheating again until clear and then mixing well. This solution was stored at room temperature for up to 3 months prior to use. To prepare 10/18 DRD formulations for daily dosing, DMSO stock solutions were diluted 1:10 with 20% Cremophor RH40. The final 10/18 DRD formulation for dosing contained 10% DMSO, 18% Cremophor RH40, 3.6% dextrose, 68.4% water and the appropriate amount of test article. Animals were intravenously (i.v.) injected with this formulation at 10 mL per kg body weight on one day each week for a total of 3 doses, four days after tamoxifen pellets were implanted.\nThe ability of Compound 1 to enhance the in vivo anti-tumor activity of tamoxifen was investigated."}, "[2]": {"system": "MCF-7 breast cancer cells", "assay": "Emergence of tamoxifen resistant clones in MCF-7 cell culture", "format": "cell-based, human", "details": "tamoxifen combined with compound 1, MCF-7 cell culture"}}}
{"smiles": "CC(C)c1cc(-c2nnc(O)n2-c2ccc3c(ccn3C)c2)c(O)cc1O", "note": "[Compound 1, 3-(2,4-dihydroxy-5-isopropyl-phenyl)-4-(1-methyl-indol-5-yl)-5-hydroxy-[1,2,4]triazole]", "values": [{"measurement": "adverse finding in dosed animals", "setting": "[1]; Compound 1 alone cohort, 180 mg/kg i.v., one of the animals, following the first dose, removed from the study", "value": "signs of necrosis in the tail"}, {"measurement": "in vivo growth rate of MCF-7 cells (tumor volume)", "setting": "[1]; Compound 1 alone, 180 mg/kg i.v. 1 time per week, 3 doses, nude mice", "value": "moderate reductions in the growth rate"}, {"measurement": "effect in combination with tamoxifen in the treatment of breast cancer", "setting": "[1]; in combination with tamoxifen, preclinical model", "value": "surprising synergistic effect"}, {"measurement": "tumor response (tumor volume) to the combination", "setting": "[1]; slow release tamoxifen combined with 180 mg/kg Compound 1 i.v. 1 time per week, 3 doses, nude mice", "value": "significant tumor regression"}, {"measurement": "emergence of tamoxifen resistant clones", "setting": "[2]", "value": "dramatically limited the emergence of tamoxifen resistant clones"}]}
{"smiles": "CC/C(=C(\\c1ccccc1)c1ccc(OCCN(C)C)cc1)c1ccccc1", "note": "[tamoxifen, reference compound]", "values": [{"measurement": "in vivo growth rate of MCF-7 cells (tumor volume)", "setting": "[1]; slow release tamoxifen pellets alone (10/18 DRD vehicle as mock treatment), nude mice", "value": "moderate reductions in the growth rate"}]}
